From PubChem BioAssay AID1845213 (Molecular Pharmacology Branch, DTP, NCI, 2023)

Tested on: NCI-H841 complex tumor spheroid viability
Test: Anticancer human tumor NCI-H841 cell line growth inhibition;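 further: spheroids exposed to compounds for 7 days before readout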;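 on viability, T/C: 100% = DMSO vehicle control wells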
Conditions: for IC50: curve of first compound; for viability, T/C: stronger effect = lower value
Summary of the method: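 Complex tumor spheroids combined malignant cells with endothelial cells and mesenchymal stem cells. DNA-damaging drugs and DNA repair inhibitors were tested alone and in combination, at half-log dilutions down from clinical Cmax (top 10 microM if Cmax unknown), 0.25% DMSO final.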

[1] = second compound 30 pM, first compound 0.0316 µM
[2] = second compound 30 pM, first compound 0.1 µM
[3] = second compound 30 pM, first compound 0.316 µM
[4] = second compound 30 pM, first compound 1 µM
[5] = second compound 30 pM, first compound 3.16 µM
[6] = second compound 30 pM, first compound 10 µM
[7] = second compound 94.9 pM, first compound 0.0316 µM
[8] = second compound 94.9 pM, first compound 0.1 µM
[9] = second compound 94.9 pM, first compound 0.316 µM
[10] = second compound 94.9 pM, first compound 1 µM
[11] = second compound 94.9 pM, first compound 3.16 µM
[12] = second compound 94.9 pM, first compound 10 µM
[13] = second compound 0.0003 µM, first compound 0.0316 µM
[14] = second compound 0.0003 µM, first compound 0.1 µM
[15] = second compound 0.0003 µM, first compound 0.316 µM
[16] = second compound 0.0003 µM, first compound 1 µM
[17] = second compound 0.0003 µM, first compound 3.16 µM
[18] = second compound 0.0003 µM, first compound 10 µM
[19] = second compound 0.000949 µM, first compound 0.0316 µM
[20] = second compound 0.000949 µM, first compound 0.1 µM
[21] = second compound 0.000949 µM, first compound 0.316 µM
[22] = second compound 0.000949 µM, first compound 1 µM
[23] = second compound 0.000949 µM, first compound 3.16 µM
[24] = second compound 0.000949 µM, first compound 10 µM
[25] = second compound 0.003 µM, first compound 0.0316 µM
[26] = second compound 0.003 µM, first compound 0.1 µM
[27] = second compound 0.003 µM, first compound 0.316 µM
[28] = second compound 0.003 µM, first compound 1 µM
[29] = second compound 0.003 µM, first compound 3.16 µM
[30] = second compound 0.003 µM, first compound 10 µM

With `Cc1cc(C)c(CNC(=O)c2cc(-c3ccc(CN4CCOCC4)cc3)cc3c2cnn3C2CCCC2)c(=O)[nH]1` + COc1cc2c(cc1O)CCNC21CSC2c3c(OC(C)=O)c(C)c4c(c3C(COC1=O)N1C(O)C3Cc5cc(C)c(OC)c(O)c5C(C21)N3C)OCO4 the IC50 (second compound 30 pM) was > 10000 nM, the IC50 (second compound 94.9 pM) was > 10000 nM and the IC50 (second compound 0.0003 µM) was < 31.6 nM. For the same compound, the IC50 (second compound 0.000949 µM) was < 31.6 nM, the IC50 (second compound 0.003 µM) was < 31.6 nM and the viability, T/C [1] was 99.7%. It also gave a viability, T/C [2] of 102%, a viability, T/C [3] of 104% and a viability, T/C [4] of 95.4%. The viability, T/C [5] was 87%, the viability, T/C [6] was 65% and the viability, T/C [7] was 99.5%. It also gave a viability, T/C [8] of 99.7%, a viability, T/C [9] of 97% and a viability, T/C [10] of 89.5%. It also gave a viability, T/C [11] of 84.7%, a viability, T/C [12] of 57% and a viability, T/C [13] of 38.6%. The viability, T/C [14] was 44%, the viability, T/C [15] was 46.7% and the viability, T/C [16] was 32.2%. The viability, T/C [17] was 25.2%, the viability, T/C [18] was 7.36% and the viability, T/C [19] was 2.45%. For the same compound, the viability, T/C [20] was 2.86%, the viability, T/C [21] was 3.65% and the viability, T/C [22] was 2.33%. The viability, T/C [23] was 2.54%, the viability, T/C [24] was 1.15% and the viability, T/C [25] was 0.26%. It also gave a viability, T/C [26] of 0.12%, a viability, T/C [27] of 0.11% and a viability, T/C [28] of 0.11%. It also gave a viability, T/C [29] of 0.13% and a viability, T/C [30] of 0.19%.

`Cc1sc2c(c1C)C(c1ccc(Cl)cc1)=NC(CC(=O)Nc1ccc(O)cc1)c1nnc(C)n1-2` (stereo not given) + COc1cc2c(cc1O)CCNC21CSC2c3c(OC(C)=O)c(C)c4c(c3C(COC1=O)N1C(O)C3Cc5cc(C)c(OC)c(O)c5C(C21)N3C)OCO4 was tested, and the IC50 (second compound 30 pM) was 515 nM, the IC50 (second compound 94.9 pM) was 291 nM and the IC50 (second compound 0.0003 µM) was < 9.49 nM. For the same compound, the IC50 (second compound 0.000949 µM) was < 9.49 nM, the IC50 (second compound 0.003 µM) was < 9.49 nM and the viability, T/C (second compound 30 pM, first compound 0.00949 µM) was 101%. For the same compound, the viability, T/C (second compound 30 pM, first compound 0.03 µM) was 99.2%, the viability, T/C (second compound 30 pM, first compound 0.0949 µM) was 93.3% and the viability, T/C (second compound 30 pM, first compound 0.3 µM) was 69.2%. It also gave a viability, T/C (second compound 30 pM, first compound 0.949 µM) of 28.3%, a viability, T/C (second compound 30 pM, first compound 3 µM) of 5.97% and a viability, T/C (second compound 94.9 pM, first compound 0.00949 µM) of 99.5%. It also gave a viability, T/C (second compound 94.9 pM, first compound 0.03 µM) of 91.6%, a viability, T/C (second compound 94.9 pM, first compound 0.0949 µM) of 74.9% and a viability, T/C (second compound 94.9 pM, first compound 0.3 µM) of 53.9%. The viability, T/C (second compound 94.9 pM, first compound 0.949 µM) was 14.4%, the viability, T/C (second compound 94.9 pM, first compound 3 µM) was 2.65% and the viability, T/C (second compound 0.0003 µM, first compound 0.00949 µM) was 37.6%. The viability, T/C (second compound 0.0003 µM, first compound 0.03 µM) was 20.6%, the viability, T/C (second compound 0.0003 µM, first compound 0.0949 µM) was 15.6% and the viability, T/C (second compound 0.0003 µM, first compound 0.3 µM) was 5.26%. The viability, T/C (second compound 0.0003 µM, first compound 0.949 µM) was 2.59%, the viability, T/C (second compound 0.0003 µM, first compound 3 µM) was 1.68% and the viability, T/C (second compound 0.000949 µM, first compound 0.00949 µM) was 2.84%. It also gave a viability, T/C (second compound 0.000949 µM, first compound 0.03 µM) of 2.9%, a viability, T/C (second compound 0.000949 µM, first compound 0.0949 µM) of 2.06% and a viability, T/C (second compound 0.000949 µM, first compound 0.3 µM) of 0.99%. It also gave a viability, T/C (second compound 0.000949 µM, first compound 0.949 µM) of 0.03%, a viability, T/C (second compound 0.000949 µM, first compound 3 µM) of 0.1% and a viability, T/C (second compound 0.003 µM, first compound 0.00949 µM) of 0.12%. The viability, T/C (second compound 0.003 µM, first compound 0.03 µM) was 0.12%, the viability, T/C (second compound 0.003 µM, first compound 0.0949 µM) was 0.12% and the viability, T/C (second compound 0.003 µM, first compound 0.3 µM) was 0.1%. It also gave a viability, T/C (second compound 0.003 µM, first compound 0.949 µM) of 0.12% and a viability, T/C (second compound 0.003 µM, first compound 3 µM) of 0.2%.

`[2H]c1nc(C)nc([2H])c1-c1cc(NC[C@@H](C)c2cccc3c(C(=O)NC)ccnc23)ncn1` + COc1cc2c(cc1O)CCNC21CSC2c3c(OC(C)=O)c(C)c4c(c3C(COC1=O)N1C(O)C3Cc5cc(C)c(OC)c(O)c5C(C21)N3C)OCO4 was tested, and the IC50 (second compound 30 pM) was > 10000 nM, the IC50 (second compound 94.9 pM) was > 10000 nM and the IC50 (second compound 0.0003 µM) was < 31.6 nM. The IC50 (second compound 0.000949 µM) was < 31.6 nM, the IC50 (second compound 0.003 µM) was < 31.6 nM and the viability, T/C [1] was 98.7%. For the same compound, the viability, T/C [2] was 101%, the viability, T/C [3] was 102% and the viability, T/C [4] was 99.4%. For the same compound, the viability, T/C [5] was 97.2%, the viability, T/C [6] was 96.2% and the viability, T/C [7] was 101%. The viability, T/C [8] was 102%, the viability, T/C [9] was 98% and the viability, T/C [10] was 96.9%. The viability, T/C [11] was 96.9%, the viability, T/C [12] was 93% and the viability, T/C [13] was 40%. For the same compound, the viability, T/C [14] was 47.3%, the viability, T/C [15] was 38.3% and the viability, T/C [16] was 34.7%. For the same compound, the viability, T/C [17] was 39.7%, the viability, T/C [18] was 20.1% and the viability, T/C [19] was 3.9%. For the same compound, the viability, T/C [20] was 2.99%, the viability, T/C [21] was 3.31% and the viability, T/C [22] was 3.19%. For the same compound, the viability, T/C [23] was 3.35%, the viability, T/C [24] was 3.46% and the viability, T/C [25] was 0.12%. The viability, T/C [26] was 0.1%, the viability, T/C [27] was 0.1% and the viability, T/C [28] was 0.1%. The viability, T/C [29] was 0.12% and the viability, T/C [30] was 0.17%.
